Source: ChEMBL document CHEMBL1124314, “Development of phosphonate derivatives of gadolinium chelates for NMR imaging of calcified soft tissues” (J Med Chem, 1989)

Columns and labels:
[1] = organism: Rattus norvegicus; assay: Biodistribution in rat liver in the presence of 0.10 M GdDTPA-BDP; type: ADME, organism-based; conditions: in vivo
[2] = organism: Rattus norvegicus; assay: Biodistribution in rat liver in the presence of GdDTPA at 15 min; type: ADME, organism-based; conditions: in vivo, 0.25 h
[3] = organism: Rattus norvegicus; assay: Biodistribution in rat liver in the presence of GdDTPA at 1 hr; type: ADME, organism-based; conditions: in vivo
[4] = organism: Rattus norvegicus; assay: Biodistribution in rat liver in the presence of GdDTPA at 30 min; type: ADME, organism-based; conditions: in vivo, 0.5 h
[5] = organism: Rattus norvegicus; assay: Biodistribution in rat liver in the presence of GdDTPA at 4 hr; type: ADME, organism-based; conditions: in vivo
[6] = organism: Rattus norvegicus; assay: Biodistribution in rat blood in the presence of GdDTPA-HPDP at 15 min; type: ADME, organism-based; conditions: in vivo, 0.25 h
[7] = organism: Rattus norvegicus; assay: Biodistribution in rat blood in the presence of GdDTPA-HPDP at 30 min; type: ADME, organism-based; conditions: in vivo, 0.5 h
[8] = organism: Rattus norvegicus; assay: Biodistribution in rat blood in the presence of GdDTPA-HPDP at 4 hr; type: ADME, organism-based; conditions: in vivo
[9] = organism: Rattus norvegicus; assay: Biodistribution in rat blood in the presence of GdDTPA-HPDPat 1 hr; type: ADME, organism-based; conditions: in vivo
[10] = organism: Rattus norvegicus; assay: Biodistribution in rat bone in the presence of 0.01 M GdDTPA-BDP; type: ADME, organism-based, Bone element; conditions: in vivo
[11] = organism: Rattus norvegicus; assay: Biodistribution in rat bone in the presence of 0.05 M GdDTPA-BDP; type: ADME, organism-based, Bone element; conditions: in vivo
[12] = organism: Rattus norvegicus; assay: Biodistribution in rat bone in the presence of 0.05 M/0.05 M GdDTPA-AEP; type: ADME, organism-based, Bone element; conditions: in vivo
[13] = organism: Rattus norvegicus; assay: Biodistribution in rat bone in the presence of 0.05 M/0.08 M GdDTPA-HPDP; type: ADME, organism-based, Bone element; conditions: in vivo
[14] = organism: Rattus norvegicus; assay: Biodistribution in rat blood in the presence of 0.05 M/0.05 M GdDTPA-AEP; type: ADME, organism-based; conditions: in vivo
[15] = organism: Rattus norvegicus; assay: Biodistribution in rat blood in the presence of 0.10 M GdDTPA-BDP; type: ADME, organism-based; conditions: in vivo
[16] = organism: Rattus norvegicus; assay: Biodistribution in rat blood in the presence of GdDTPA at 1 hr; type: ADME, organism-based; conditions: in vivo
[17] = organism: Rattus norvegicus; assay: Biodistribution in rat blood in the presence of GdDTPA at 4 hr; type: ADME, organism-based; conditions: in vivo
[18] = organism: Rattus norvegicus; assay: Biodistribution in rat heart in the presence of 0.05 M GdDTPA-BDP; type: ADME, organism-based; conditions: in vivo
[19] = organism: Rattus norvegicus; assay: Biodistribution in rat muscle in the presence of GdDTPA-HPDPat 15 min; type: ADME, organism-based, Muscle tissue; conditions: in vivo, 0.25 h
[20] = organism: Rattus norvegicus; assay: Biodistribution in rat bone in the presence of GdDTPA at 20 min; conditions: in vivo, 0.33 h
[21] = organism: Rattus norvegicus; assay: Biodistribution in rat heart in the presence of GdDTPA at 20 min; conditions: in vivo, 0.33 h
[22] = organism: Rattus norvegicus; assay: Biodistribution in rat blood in the presence of GdDTPA at 20 min; conditions: in vivo, 0.33 h
[23] = organism: Rattus norvegicus; assay: Biodistribution in rat bone in the presence of GdDTPA-BDP at 4 hr; conditions: in vivo
[24] = organism: Rattus norvegicus; assay: Biodistribution in rat heart in the presence of GdDTPA-BDP at 1 hr; conditions: in vivo
[25] = organism: Rattus norvegicus; assay: Biodistribution in rat blood in the presence of GdDTPA-BDP at 1 hr; conditions: in vivo
[26] = organism: Rattus norvegicus; assay: Biodistribution in rat bone in the presence of 0.001 M/0.008 M GdDTPA-AEP; conditions: in vivo
[27] = organism: Rattus norvegicus; assay: Biodistribution in rat heart in the presence of 0.001 M/0.008 M GdDTPA-AEP; conditions: in vivo
[28] = organism: Rattus norvegicus; assay: Biodistribution in rat kidney in the presence of 0.001 M/0.008 M GdDTPA-AEP; conditions: in vivo

O=C(O)CN(CCN(CC(=O)O)CC(=O)O)CCN(CC(=O)O)CC(=O)O [PENTETIC ACID]
ID/organ [1]: 0.795%
ID/organ [2]: 1.59%
ID/organ [3]: 0.267%
ID/organ [4]: 0.418%
ID/organ [5]: 0.163%
ID/organ [6]: 4.07%
ID/organ [7]: 2.46%
ID/organ [8]: 0.068%
ID/organ [9]: 0.543%
ID/organ [10]: 20.5%
ID/organ [11]: 16.3%
ID/organ [12]: 0.483%
ID/organ [13]: 17.6%
ID/organ [14]: 0.556%
ID/organ [15]: 1.62%
ID/organ [16]: 0.094%
ID/organ [17]: 0.005%
ID/organ [18]: 0.048%
ID/organ [19]: 6.36%
ID/organ [20]: 3.5%
ID/organ [21]: 0.097%
ID/organ [22]: 6.03%
ID/organ [23]: 18.5%
ID/organ [24]: 0.055%
ID/organ [25]: 2.74%
ID/organ [26]: 0.264%
ID/organ [27]: 0.004%
ID/organ [28]: 0.268%
